# Reference: ChEMBL document CHEMBL4033680, “Derivatives of caffeic acid, a natural antioxidant, as the basis for the discovery of novel nonpeptidic neurotrophic agents” (2017)
# Activity calls are given as the source filed them. No cut-off for these calls is given here.
# Target: T1, Mitogen-activated protein kinase 1 and 3 (ERK2 and ERK1) (Rattus norvegicus) (UniProt P63086+P21708)
# Assay: Increase in ERK1/2 phosphorylation in rat PC12 cells after 2 hrs by immunoblotting method
# Type: cell-based
# Conditions: not given
# T1 sequence (P21708 whole entry, looked up): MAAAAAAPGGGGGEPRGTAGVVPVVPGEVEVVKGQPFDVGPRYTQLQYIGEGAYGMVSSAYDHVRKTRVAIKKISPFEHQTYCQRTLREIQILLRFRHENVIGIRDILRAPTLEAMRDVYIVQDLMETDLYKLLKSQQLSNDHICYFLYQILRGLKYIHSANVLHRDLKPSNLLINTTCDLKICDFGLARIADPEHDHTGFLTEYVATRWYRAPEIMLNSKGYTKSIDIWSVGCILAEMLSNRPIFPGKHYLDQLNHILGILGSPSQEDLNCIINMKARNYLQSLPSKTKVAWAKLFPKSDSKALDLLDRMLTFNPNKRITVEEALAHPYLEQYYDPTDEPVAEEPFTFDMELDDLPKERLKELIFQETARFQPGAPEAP
# T1 sequence (P63086 whole entry, looked up): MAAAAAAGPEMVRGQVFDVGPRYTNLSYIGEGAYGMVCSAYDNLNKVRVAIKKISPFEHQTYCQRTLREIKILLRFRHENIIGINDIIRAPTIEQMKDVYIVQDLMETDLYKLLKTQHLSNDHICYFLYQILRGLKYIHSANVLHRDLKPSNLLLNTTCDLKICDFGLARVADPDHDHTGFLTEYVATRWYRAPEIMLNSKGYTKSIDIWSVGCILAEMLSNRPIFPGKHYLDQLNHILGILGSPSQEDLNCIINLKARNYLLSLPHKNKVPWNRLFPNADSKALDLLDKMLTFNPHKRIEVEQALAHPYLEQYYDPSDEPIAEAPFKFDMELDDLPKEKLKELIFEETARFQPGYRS
row,SMILES,Activity
1,CCCCNC(=O)/C=C/c1ccc(O)c(O)c1,Dose-dependent effect
2,CCCCCCCCCCCCNC(=O)/C=C/c1ccc(O)c(O)c1,Dose-dependent effect

# Test system: PC-12
# Assay: Potentiation of NGF-induced neuronal differentiation in rat PC12 cells assessed as increase in number of neurites at 5 uM after 8 days by phase contrast micoscopy
# Type: functional, cell-based
# Conditions: not given
row,SMILES,Activity
1,CCCCCCCCNC(=O)/C=C/c1ccc(O)c(O)c1,Active
2,CCCCNC(=O)/C=C/c1ccc(O)c(O)c1,Active
3,CCCCCCNC(=O)/C=C/c1ccc(O)c(O)c1 [CAFFEOYLHEXYLAMIDE],Active

# Target: High affinity nerve growth factor receptor (Rattus norvegicus) (UniProt P35739)
# Assay: Potentiation of NGF-induced TrkA phosphorylation in rat PC12 cells at 5 to 25 uM after 60 mins by Western blot method
# Type: cell-based
# Conditions: not given
# Sequence of High affinity nerve growth factor receptor (Rattus norvegicus) (P35739 whole entry): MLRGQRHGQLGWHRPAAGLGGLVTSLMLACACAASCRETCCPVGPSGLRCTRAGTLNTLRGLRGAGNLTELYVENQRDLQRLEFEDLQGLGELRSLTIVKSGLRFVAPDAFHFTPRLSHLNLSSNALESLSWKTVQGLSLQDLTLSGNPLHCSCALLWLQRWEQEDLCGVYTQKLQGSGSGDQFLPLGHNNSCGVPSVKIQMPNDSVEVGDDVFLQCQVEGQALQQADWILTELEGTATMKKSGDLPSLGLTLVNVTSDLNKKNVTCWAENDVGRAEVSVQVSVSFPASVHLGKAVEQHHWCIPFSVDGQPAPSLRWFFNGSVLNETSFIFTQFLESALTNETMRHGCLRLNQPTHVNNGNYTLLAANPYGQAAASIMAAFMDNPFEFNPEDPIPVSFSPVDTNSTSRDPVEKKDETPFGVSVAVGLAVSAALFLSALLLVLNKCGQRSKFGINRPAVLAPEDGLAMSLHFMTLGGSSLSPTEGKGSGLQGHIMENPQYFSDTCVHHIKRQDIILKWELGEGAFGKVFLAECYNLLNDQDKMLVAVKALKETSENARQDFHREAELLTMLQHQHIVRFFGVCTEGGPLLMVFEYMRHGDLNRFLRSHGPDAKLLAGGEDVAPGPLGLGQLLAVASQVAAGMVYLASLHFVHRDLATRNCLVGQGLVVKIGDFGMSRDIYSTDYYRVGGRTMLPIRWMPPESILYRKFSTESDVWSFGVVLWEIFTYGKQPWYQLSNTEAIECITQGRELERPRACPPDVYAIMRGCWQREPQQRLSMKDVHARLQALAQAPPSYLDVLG
row,SMILES,Activity
1,CCCCNC(=O)/C=C/c1ccc(O)c(O)c1,inactive
2,CCCCCCCCCCCCNC(=O)/C=C/c1ccc(O)c(O)c1,inactive

# Test system: PC-12
# Assay: Potentiation of NGF-induced neuronal differentiation in rat PC12 cells assessed as increase in number of neurites at 1 uM after 8 days by phase contrast micoscopy
# Type: functional, cell-based
# Conditions: not given
row,SMILES,Activity
1,CCCCCCCCNC(=O)/C=C/c1ccc(O)c(O)c1,inactive
2,CCCCNC(=O)/C=C/c1ccc(O)c(O)c1,inactive
3,CCCCCCNC(=O)/C=C/c1ccc(O)c(O)c1 [CAFFEOYLHEXYLAMIDE],inactive
4,CCCNC(=O)/C=C/c1ccc(O)c(O)c1,inactive

# Target: RAC-alpha serine/threonine-protein kinase (Rattus norvegicus) (UniProt P47196)
# Assay: Increase in NGF-induced AKT phosphorylation in rat PC12 cells at 5 to 25 uM after 2 hrs by immunoblotting method
# Type: cell-based
# Conditions: not given
# Sequence of RAC-alpha serine/threonine-protein kinase (Rattus norvegicus) (P47196 whole entry): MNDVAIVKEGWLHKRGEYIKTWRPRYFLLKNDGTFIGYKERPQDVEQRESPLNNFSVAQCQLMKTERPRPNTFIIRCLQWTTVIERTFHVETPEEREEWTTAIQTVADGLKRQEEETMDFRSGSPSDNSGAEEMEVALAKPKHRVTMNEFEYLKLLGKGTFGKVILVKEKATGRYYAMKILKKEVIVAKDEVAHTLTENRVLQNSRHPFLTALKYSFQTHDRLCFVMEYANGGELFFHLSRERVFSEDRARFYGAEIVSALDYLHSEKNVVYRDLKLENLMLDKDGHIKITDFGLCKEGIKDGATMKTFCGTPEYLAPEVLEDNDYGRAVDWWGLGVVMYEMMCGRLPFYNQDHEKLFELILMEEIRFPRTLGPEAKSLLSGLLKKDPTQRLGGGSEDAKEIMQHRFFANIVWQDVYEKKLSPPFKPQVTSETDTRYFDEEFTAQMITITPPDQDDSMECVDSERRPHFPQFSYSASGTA
row,SMILES,Activity
1,CCCCNC(=O)/C=C/c1ccc(O)c(O)c1,inactive
2,CCCCCCCCCCCCNC(=O)/C=C/c1ccc(O)c(O)c1,inactive

# Target: High affinity nerve growth factor receptor (Rattus norvegicus) (UniProt P35739)
# Assay: Activation of TrkA in rat PC12 cells assessed as increase in phospho-TrkA levels at 5 to 25 uM after 60 mins by Western blot method
# Type: cell-based
# Conditions: not given
row,SMILES,Activity
1,CCCCNC(=O)/C=C/c1ccc(O)c(O)c1,inactive
2,CCCCCCCCCCCCNC(=O)/C=C/c1ccc(O)c(O)c1,inactive

# Test system: PC-12
# Assay: Potentiation of NGF-induced neuronal differentiation in rat PC12 cells assessed as increase in number of neurites after 8 days by phase contrast micoscopy
# Type: functional, cell-based
# Conditions: not given
row,SMILES,Activity
1,CCCCCCCCCCCCNC(=O)/C=C/c1ccc(O)c(O)c1,inactive
2,CCCCCCCCCCNC(=O)/C=C/c1ccc(O)c(O)c1,inactive

# Target: T1, Mitogen-activated protein kinase 1 and 3 (ERK2 and ERK1) (Rattus norvegicus)
# Assay: Increase in NGF-induced ERK1/2 phosphorylation in rat PC12 cells at 5 to 25 uM after 2 hrs by immunoblotting method
# Type: cell-based
# Conditions: not given
row,SMILES,Activity
1,CCCCNC(=O)/C=C/c1ccc(O)c(O)c1,Active
2,CCCCCCCCCCCCNC(=O)/C=C/c1ccc(O)c(O)c1,Active

# Test system: PC-12
# Assay: Neuroprotective activity against serum deprivation-induced cell death in rat PC12 cells assessed as increase in cell survival at 25 uM after 48 hrs in presence of TrkA inhibitor K252a by MTT assay
# Type: functional, cell-based
# Conditions: not given
row,SMILES,Activity
1,CCCCCCCCNC(=O)/C=C/c1ccc(O)c(O)c1,inactive
2,CCCCNC(=O)/C=C/c1ccc(O)c(O)c1,inactive
3,CCCCCCNC(=O)/C=C/c1ccc(O)c(O)c1 [CAFFEOYLHEXYLAMIDE],inactive
4,CCCCCCCCCCCCNC(=O)/C=C/c1ccc(O)c(O)c1,inactive
5,CCCNC(=O)/C=C/c1ccc(O)c(O)c1,inactive
6,CCCCCCCCCCNC(=O)/C=C/c1ccc(O)c(O)c1,inactive

# Target: RAC-alpha serine/threonine-protein kinase (Rattus norvegicus) (UniProt P47196)
# Assay: Increase in AKT phosphorylation in rat PC12 cells at 5 to 25 uM after 2 hrs by immunoblotting method
# Type: cell-based
# Conditions: not given
row,SMILES,Activity
1,CCCCNC(=O)/C=C/c1ccc(O)c(O)c1,inactive
2,CCCCCCCCCCCCNC(=O)/C=C/c1ccc(O)c(O)c1,Active

# Test system: PC-12
# Assay: Potentiation of NGF-induced neuronal differentiation in rat PC12 cells assessed as increase in number of neurites longer than 100 umeter at 25 uM after 8 days by phase contrast micoscopy
# Type: functional, cell-based
# Conditions: not given
row,SMILES,Activity
1,CCCCCCCCNC(=O)/C=C/c1ccc(O)c(O)c1,Active
2,CCCCNC(=O)/C=C/c1ccc(O)c(O)c1,Active
3,CCCCCCNC(=O)/C=C/c1ccc(O)c(O)c1 [CAFFEOYLHEXYLAMIDE],Active
4,CCCNC(=O)/C=C/c1ccc(O)c(O)c1,Active

# Test system: PC-12
# Assay: Potentiation of NGF-induced neuronal differentiation in rat PC12 cells assessed as increase in number of neurites longer than 100 umeter at 5 uM after 8 days by phase contrast micoscopy
# Type: functional, cell-based
# Conditions: not given
row,SMILES,Activity
1,CCCCCCCCNC(=O)/C=C/c1ccc(O)c(O)c1,Active
2,CCCCNC(=O)/C=C/c1ccc(O)c(O)c1,Active
3,CCCCCCNC(=O)/C=C/c1ccc(O)c(O)c1 [CAFFEOYLHEXYLAMIDE],Active

# Test system: PC-12
# Assay: Neuroprotective activity against serum deprivation-induced cell death in rat PC12 cells assessed as cell survival at 25 uM after 48 hrs by MTT assay relative to control
# Type: functional
# Conditions: PC-12, 48 h, read-out: Survival
row,SMILES,viability at 25 µM [%]
1,CCCCCCCCNC(=O)/C=C/c1ccc(O)c(O)c1,158
2,CCCCNC(=O)/C=C/c1ccc(O)c(O)c1,202
3,CCCCCCNC(=O)/C=C/c1ccc(O)c(O)c1 [CAFFEOYLHEXYLAMIDE],183
4,CCCCCCCCCCCCNC(=O)/C=C/c1ccc(O)c(O)c1,230
5,CCCNC(=O)/C=C/c1ccc(O)c(O)c1,158
6,CCCCCCCCCCNC(=O)/C=C/c1ccc(O)c(O)c1,193

# Test system: PC-12
# Assay: Induction of neurite outgrowth in rat PC12 cells assessed as increase in total number of neurites at 5 to 25 uM after 8 days by phase contrast micoscopy
# Type: functional, cell-based
# Conditions: not given
row,SMILES,Activity
1,CCCCCCCCNC(=O)/C=C/c1ccc(O)c(O)c1,inactive
2,CCCCNC(=O)/C=C/c1ccc(O)c(O)c1,inactive
3,CCCCCCNC(=O)/C=C/c1ccc(O)c(O)c1 [CAFFEOYLHEXYLAMIDE],inactive
4,CCCNC(=O)/C=C/c1ccc(O)c(O)c1,inactive

# Test system: PC-12
# Assay: Potentiation of NGF-induced neuronal differentiation in rat PC12 cells assessed as increase in number of neurites at 25 uM after 8 days by phase contrast micoscopy
# Type: functional, cell-based
# Conditions: not given
row,SMILES,Activity
1,CCCCCCCCNC(=O)/C=C/c1ccc(O)c(O)c1,Active
2,CCCCNC(=O)/C=C/c1ccc(O)c(O)c1,Active
3,CCCCCCNC(=O)/C=C/c1ccc(O)c(O)c1 [CAFFEOYLHEXYLAMIDE],Active
4,CCCNC(=O)/C=C/c1ccc(O)c(O)c1,Active
